From ChEMBL document CHEMBL1159136, “Dipeptide mimetics can substitute for the receptor activation domain resulting in highly potent analogues of hPTH(136)” (Bioorg Med Chem Lett, 1996)
Square brackets hold non-standard residues; d marks the D form. Peptide text beside a SMILES is read from it. * marks the point of attachment. X1 = CC(C)[C@H](/C=C(\Cl)[C@H](C)N)C(=O)*; X2 = CC(C)[C@H](/C=C(\F)[C@H](C)N)C(=O)*; X3 = C/C(=C\[C@H](C(=O)*)C(C)C)[C@H](C)N; NMeV = CN[C@H](C(=O)O)C(C)C; NMeA = CN[C@@H](C)C(=O)O

What was measured:
SAOS-2 [1] = assay: Compound was evaluated for the accumulation of cyclic AMP in SaOS-2 (human osteosarcoma) cells.; format: functional, cell-based
OK-1 [2] = assay: Compound was evaluated for the intrinsic activity for accumulation of cyclic AMP in OK-1 cells.; format: functional, opossum
OK-1 [3] = assay: Displacement of [125I]-chick PTHrP-(1-36)-NH2 from opossum (OK-1) kidney cells; format: functional
OK-1 [4] = assay: Accumulation of cyclic AMP in OK-1 cells.; format: functional, cell-based, opossum
UMR106-06 [5] = assay: Compound was evaluated for the accumulation of cyclic AMP in UMR10606 (rat osteosarcoma) cells.; format: functional, cell-based
UMR106-06 [6] = assay: Compound was evaluated for the intrinsic activity for accumulation of cyclic AMP in UMR10606 (rat osteosarcoma) cells.; format: functional
SAOS-2 [7] = assay: Compound was evaluated for the intrinsic activity for accumulation of cyclic AMP in SaOS-2 (human osteosarcoma) cells.; format: functional

Row | SMILES | EC50 (SAOS-2 [1]; Homo sapiens, SAOS-2) [nM] | Intrinsic activity (OK-1 [2]) | pKD (OK-1 [3]) | EC50 (OK-1 [4]; opossum, OK-1) [nM] | EC50 (UMR106-06 [5]; umr106-06) [nM] | Intrinsic activity (UMR106-06 [6]) | Intrinsic activity (SAOS-2 [7]) | EC50 (UMR106-06 [5]; Rattus norvegicus, UMR106-06) [nM] | EC50 (SAOS-2 [1]; saos-2) [nM] | EC50 (OK-1 [4]; ok-1) [nM]
1 | CC[C@H](C)[C@H](NC(=O)[C@H](CCC(=O)O)NC(=O)[C@H](CO)NC(=O)[C@@H](NC(=O)[C@H](C)N)C(C)C)C(=O)N[C@@H](CCC(N)=O)C(=O)N[C@@H](CC(C)C)C(=O)N[C@@H](CCSC)C(=O)N[C@@H](Cc1c[nH]cn1)C(=O)N[C@@H](CC(N)=O)C(=O)N[C@@H](CC(C)C)C(=O)NCC(=O)N[C@@H](CCCCN)C(=O)N[C@@H](Cc1c[nH]cn1)C(=O)N[C@@H](CC(C)C)C(=O)N[C@@H](CC(N)=O)C(=O)N[C@@H](CO)C(=O)N[C@@H](CCSC)C(=O)N[C@@H](CCC(=O)O)C(=O)N[C@@H](CCCN=C(N)N)C(=O)N[C@H](C(=O)N[C@@H](CCC(=O)O)C(=O)N[C@@H](Cc1c[nH]c2ccccc12)C(=O)N[C@@H](CC(C)C)C(=O)N[C@@H](CCCN=C(N)N)C(=O)N[C@@H](CCCCN)C(=O)N[C@@H](CCCCN)C(=O)N[C@@H](CC(C)C)C(=O)N[C@@H](CCC(N)=O)C(=O)N[C@@H](CC(=O)O)C(=O)N[C@H](C(=O)N[C@@H](Cc1c[nH]cn1)C(=O)N[C@@H](CC(N)=O)C(=O)N[C@@H](Cc1ccccc1)C(=O)N[C@H](C(=O)N[C@@H](C)C(N)=O)C(C)C)C(C)C)C(C)C (stereo in doubt; form 2) | 2.4 | 1 | 8.1 | 7 | 1 | 0.95 | 1 | – | – | –
2 | CC[C@H](C)[C@H](NC(=O)[C@H](CCC(=O)O)NC(=O)[C@H](CO)NC(=O)[C@@H](/C=C(\F)[C@H](C)N)C(C)C)C(=O)N[C@@H](CCC(N)=O)C(=O)N[C@@H](CC(C)C)C(=O)N[C@@H](CCSC)C(=O)N[C@@H](Cc1c[nH]cn1)C(=O)N[C@@H](CC(N)=O)C(=O)N[C@@H](CC(C)C)C(=O)NCC(=O)N[C@@H](CCCCN)C(=O)N[C@@H](Cc1c[nH]cn1)C(=O)N[C@@H](CC(C)C)C(=O)N[C@@H](CC(N)=O)C(=O)N[C@@H](CO)C(=O)N[C@@H](CCSC)C(=O)N[C@@H](CCC(=O)O)C(=O)N[C@@H](CCCN=C(N)N)C(=O)N[C@H](C(=O)N[C@@H](CCC(=O)O)C(=O)N[C@@H](Cc1c[nH]c2ccccc12)C(=O)N[C@@H](CC(C)C)C(=O)N[C@@H](CCCN=C(N)N)C(=O)N[C@@H](CCCCN)C(=O)N[C@@H](CCCCN)C(=O)N[C@@H](CC(C)C)C(=O)N[C@@H](CCC(N)=O)C(=O)N[C@@H](CC(=O)O)C(=O)N[C@H](C(=O)N[C@@H](Cc1c[nH]cn1)C(=O)N[C@@H](CC(N)=O)C(=O)N[C@@H](Cc1ccccc1)C(=O)N[C@H](C(=O)N[C@@H](C)C(N)=O)C(C)C)C(C)C)C(C)C (X2-SEIQLMHNLGKHLNSMERVEWLRKKLQDVHNFVA-NH2) | 1.5 | 1 | 8.9 | 4.4 | – | 1 | 0.89 | 1.6 | – | –
3 | CC[C@H](C)[C@H](NC(=O)[C@H](CCC(=O)O)NC(=O)[C@H](CO)NC(=O)[C@@H](NC(=O)[C@H](C)N)C(C)C)C(=O)N[C@@H](CCC(N)=O)C(=O)N[C@@H](CC(C)C)C(=O)N[C@@H](CCSC)C(=O)N[C@@H](Cc1c[nH]cn1)C(=O)N[C@@H](CC(N)=O)C(=O)N[C@@H](CC(C)C)C(=O)NCC(=O)N[C@@H](CCCCN)C(=O)N[C@@H](Cc1c[nH]cn1)C(=O)N[C@@H](CC(C)C)C(=O)N[C@@H](CC(N)=O)C(=O)N[C@@H](CO)C(=O)N[C@@H](CCSC)C(=O)N[C@@H](CCC(=O)O)C(=O)N[C@@H](CCCN=C(N)N)C(=O)N[C@H](C(=O)N[C@@H](CCC(=O)O)C(=O)N[C@@H](Cc1c[nH]c2ccccc12)C(=O)N[C@@H](CC(C)C)C(=O)N[C@@H](CCCN=C(N)N)C(=O)N[C@@H](CCCCN)C(=O)N[C@@H](CCCCN)C(=O)N[C@@H](CC(C)C)C(=O)N[C@@H](CCC(N)=O)C(=O)N[C@@H](CC(=O)O)C(=O)N[C@H](C(=O)N[C@@H](Cc1c[nH]cn1)C(=O)N[C@@H](CC(N)=O)C(=O)N[C@@H](Cc1ccccc1)C(=O)N[C@H](C(=O)N[C@@H](C)C(N)=O)C(C)C)C(C)C)C(C)C (stereo in doubt; form 1) | – | 1 | 8.4 | – | 3.3 | 1 | 0.95 | – | 3 | 5.9
4 | CC[C@H](C)[C@H](NC(=O)[C@H](CCC(=O)O)NC(=O)[C@H](CO)NC(=O)[C@@H](/C=C(\C)[C@H](C)N)C(C)C)C(=O)N[C@@H](CCC(N)=O)C(=O)N[C@@H](CC(C)C)C(=O)N[C@@H](CCSC)C(=O)N[C@@H](Cc1c[nH]cn1)C(=O)N[C@@H](CC(N)=O)C(=O)N[C@@H](CC(C)C)C(=O)NCC(=O)N[C@@H](CCCCN)C(=O)N[C@@H](Cc1c[nH]cn1)C(=O)N[C@@H](CC(C)C)C(=O)N[C@@H](CC(N)=O)C(=O)N[C@@H](CO)C(=O)N[C@@H](CCSC)C(=O)N[C@@H](CCC(=O)O)C(=O)N[C@@H](CCCN=C(N)N)C(=O)N[C@H](C(=O)N[C@@H](CCC(=O)O)C(=O)N[C@@H](Cc1c[nH]c2ccccc12)C(=O)N[C@@H](CC(C)C)C(=O)N[C@@H](CCCN=C(N)N)C(=O)N[C@@H](CCCCN)C(=O)N[C@@H](CCCCN)C(=O)N[C@@H](CC(C)C)C(=O)N[C@@H](CCC(N)=O)C(=O)N[C@@H](CC(=O)O)C(=O)N[C@H](C(=O)N[C@@H](Cc1c[nH]cn1)C(=O)N[C@@H](CC(N)=O)C(=O)N[C@@H](Cc1ccccc1)C(=O)N[C@H](C(=O)N[C@@H](C)C(N)=O)C(C)C)C(C)C)C(C)C (X3-SEIQLMHNLGKHLNSMERVEWLRKKLQDVHNFVA-NH2) | 1.1 | 1 | 9 | 4.4 | – | 1 | 1 | 1.2 | – | –
5 | CC[C@H](C)[C@H](NC(=O)[C@H](CCC(=O)O)NC(=O)[C@H](CO)NC(=O)[C@@H](NC(=O)[C@H](C)NC)C(C)C)C(=O)N[C@@H](CCC(N)=O)C(=O)N[C@@H](CC(C)C)C(=O)N[C@@H](CCSC)C(=O)N[C@@H](Cc1c[nH]cn1)C(=O)N[C@@H](CC(N)=O)C(=O)N[C@@H](CC(C)C)C(=O)NCC(=O)N[C@@H](CCCCN)C(=O)N[C@@H](Cc1c[nH]cn1)C(=O)N[C@@H](CC(C)C)C(=O)N[C@@H](CC(N)=O)C(=O)N[C@@H](CO)C(=O)N[C@@H](CCSC)C(=O)N[C@@H](CCC(=O)O)C(=O)N[C@@H](CCCN=C(N)N)C(=O)N[C@H](C(=O)N[C@@H](CCC(=O)O)C(=O)N[C@@H](Cc1c[nH]c2ccccc12)C(=O)N[C@@H](CC(C)C)C(=O)N[C@@H](CCCN=C(N)N)C(=O)N[C@@H](CCCCN)C(=O)N[C@@H](CCCCN)C(=O)N[C@@H](CC(C)C)C(=O)N[C@@H](CCC(N)=O)C(=O)N[C@@H](CC(=O)O)C(=O)N[C@H](C(=O)N[C@@H](Cc1c[nH]cn1)C(=O)N[C@@H](CC(N)=O)C(=O)N[C@@H](Cc1ccccc1)C(=O)N[C@H](C(=O)N[C@@H](C)C(N)=O)C(C)C)C(C)C)C(C)C (H-[NMeA]VSEIQLMHNLGKHLNSMERVEWLRKKLQDVHNFVA-NH2) | 1.6 | 0.9 | 8.5 | 7.4 | – | 1 | 1 | 2.6 | – | –
6 | CC[C@H](C)[C@H](NC(=O)[C@H](CCC(=O)O)NC(=O)[C@H](CO)NC(=O)[C@@H](/C=C(\Cl)[C@H](C)N)C(C)C)C(=O)N[C@@H](CCC(N)=O)C(=O)N[C@@H](CC(C)C)C(=O)N[C@@H](CCSC)C(=O)N[C@@H](Cc1c[nH]cn1)C(=O)N[C@@H](CC(N)=O)C(=O)N[C@@H](CC(C)C)C(=O)NCC(=O)N[C@@H](CCCCN)C(=O)N[C@@H](Cc1c[nH]cn1)C(=O)N[C@@H](CC(C)C)C(=O)N[C@@H](CC(N)=O)C(=O)N[C@@H](CO)C(=O)N[C@@H](CCSC)C(=O)N[C@@H](CCC(=O)O)C(=O)N[C@@H](CCCN=C(N)N)C(=O)N[C@H](C(=O)N[C@@H](CCC(=O)O)C(=O)N[C@@H](Cc1c[nH]c2ccccc12)C(=O)N[C@@H](CC(C)C)C(=O)N[C@@H](CCCN=C(N)N)C(=O)N[C@@H](CCCCN)C(=O)N[C@@H](CCCCN)C(=O)N[C@@H](CC(C)C)C(=O)N[C@@H](CCC(N)=O)C(=O)N[C@@H](CC(=O)O)C(=O)N[C@H](C(=O)N[C@@H](Cc1c[nH]cn1)C(=O)N[C@@H](CC(N)=O)C(=O)N[C@@H](Cc1ccccc1)C(=O)N[C@H](C(=O)N[C@@H](C)C(N)=O)C(C)C)C(C)C)C(C)C (X1-SEIQLMHNLGKHLNSMERVEWLRKKLQDVHNFVA-NH2) | 0.85 | 1.1 | 8.9 | 7.9 | – | 1 | 1 | 0.65 | – | –
7 | CC[C@H](C)[C@H](NC(=O)[C@H](CCC(=O)O)NC(=O)[C@H](CO)NC(=O)[C@H](C(C)C)N(C)C(=O)[C@H](C)N)C(=O)N[C@@H](CCC(N)=O)C(=O)N[C@@H](CC(C)C)C(=O)N[C@@H](CCSC)C(=O)N[C@@H](Cc1c[nH]cn1)C(=O)N[C@@H](CC(N)=O)C(=O)N[C@@H](CC(C)C)C(=O)NCC(=O)N[C@@H](CCCCN)C(=O)N[C@@H](Cc1c[nH]cn1)C(=O)N[C@@H](CC(C)C)C(=O)N[C@@H](CC(N)=O)C(=O)N[C@@H](CO)C(=O)N[C@@H](CCSC)C(=O)N[C@@H](CCC(=O)O)C(=O)N[C@@H](CCCN=C(N)N)C(=O)N[C@H](C(=O)N[C@@H](CCC(=O)O)C(=O)N[C@@H](Cc1c[nH]c2ccccc12)C(=O)N[C@@H](CC(C)C)C(=O)N[C@@H](CCCN=C(N)N)C(=O)N[C@@H](CCCCN)C(=O)N[C@@H](CCCCN)C(=O)N[C@@H](CC(C)C)C(=O)N[C@@H](CCC(N)=O)C(=O)N[C@@H](CC(=O)O)C(=O)N[C@H](C(=O)N[C@@H](Cc1c[nH]cn1)C(=O)N[C@@H](CC(N)=O)C(=O)N[C@@H](Cc1ccccc1)C(=O)N[C@H](C(=O)N[C@@H](C)C(N)=O)C(C)C)C(C)C)C(C)C (H-A[NMeV]SEIQLMHNLGKHLNSMERVEWLRKKLQDVHNFVA-NH2) | – | 1 | 8.4 | 3.5 | – | 0.9 | – | 4.4 | – | –
